Legend:
rat sciatic nerve = test: Axonal regeneration after sciatic nerve transection (neurotmesis) and neurorrhaphic repair; type: in vivo
Experimental: (§1) All surgical procedures were performed according to Institutional Animal Care and Use Committee (IACUC) approved protocols. Young adult SPRAGUE DAWLEY rats (HARLAN Indianapolis, Ind.) were deeply anesthetized with xylazine (15 mg/kg, i.m.) followed by ketamine-HCl (110 mg/kg, i.p.). Six animals received bilateral nerve crush injuries. Sciatic nerves were exposed and then crushed with firm pressure for thirty seconds with a DUMONT #5 forceps at a site 4 mm distal to the tendon of the internal obdurator. The crush site was marked with an epineurial suture. In a separate set of experiments, eight rats received bilateral sciatic nerve transection injuries using serrated scissors. The proximal and distal stumps were coated by epineurial neurorrhaphy using 9-0 ETHILON sutures. Fibrin glue (fibrinogen and thrombin) was then applied to stabilize the union. In both injury models, the right sciatic nerves were injected 2-mm distal to the injury with chondroitinase ABC (1 U in 2 μl) (high-purity, protease-free; SIGMA CHEMICAL CO., St. Louis, […].). Left sciatic nerves (with the same injury as the right side) were injected with vehicle alone (0.1% bovine serum albumin in PBS). Muscle incisions were sutured and the skin closed with metal clips. After recovery from the anesthetic, animals were returned to standard housing. Two days (for crush injury) and four days (for transection injury) after surgery, nerves were removed under anesthesia and fixed as described below. One of the eight animals receiving nerve transection and repair was excluded because loss of continuity in one nerve occurred during convalescence.
The hypothesis that chondroitinase treatment improves axonal growth through the site of nerve coaptation was tested. Bilateral neurotmesis was achieved by a scissor cut of the sciatic nerves which were then repaired by epineurial suture and fibrin glue. One nerve was injected with chondroitinase ABC and the contralateral nerve received vehicle alone. Because of the latency of regeneration after nerve transection, axonal growth across the coaptation was examined four days after injury. In control nerves, the ingress of axons occurred mainly in patches and was limited to discrete subsections of the distal nerve; otherwise only a few axons were found scattered throughout the remaining nerve cross-section, as shown in FIG. 14A. The number of axons extending farther into the distal (after 4 days) rapidly diminished and approached zero within 3 mm from the coaptation. In contrast, axon ingress into chondroitinase-treated nerves was more robust and widespread throughout the entire nerve cross-section. In 7/7 animals, the number of axons that entered the distal nerve was greater in the chondroitinase-treated nerve than in the control nerve. […]

[1] = tested on: embryonic chick DRG neurons; test: Cryoculture bioassay (neurite outgrowth) on sections of acellular rat nerve segments; type: cell-based
Experimental: Cryoculture is a neurite outgrowth assay in which neurons are cultured directly on fresh/frozen nerve sections and was performed as described previously (Ferguson T A et al. [2000] Mol Cell Neurosci, 16:157-167). Briefly, chondroitinase- and vehicle-treated nerve segments were sectioned at 20 μm, mounted on sterile, aminopropyltriethoxysilane (APTS)-coated coverslips and stored at −20° C. until used. Where indicated, sections were treated with chondroitinase ABC (0.1 unit/ml) or vehicle (50 mM Tris-HCl, pH 8.0), containing 50 mM NaCl) for 2 h at 37° C. Purified dorsal root ganglionic (DRG) neurons from day 8 chick embryos were seeded directly on the nerve sections in a defined N2 medium (Bottenstein J E et al. [1980] Exp Cell Res 125:183-190) containing 10 ng/ml nerve growth factor. Cryoculture assays were terminated after 24 h of incubation by fixation with 100% methanol. Neuritic growth by DRG neurons was accessed by GAP-43 immunofluorescent labeling. Epifluorescent photomicrographs were acquired as described for tissue sections. Neurite lengths were measured directly using IMAGE-PRO PLUS software (MEDIA CYBERNETICS, Silver Springs, Md.). At least 250 neurons with neurites greater than one cell body (˜15 μm) were scored for each condition in each experiment.
Inactivation of inhibitory CSPG in chondroitinase-treated acellular nerve was determined by cryoculture bioassay. Embryonic chick DRG neurons were seeded onto sections of prepared nerve segments and the neurite-promoting activity was assessed by scoring neurite growth. On sections of acellular nerve pretreated en bloc with vehicle only the average neurite length was 49 μm. Neurite growth on acellular nerve pretreated en bloc with chondroitinase averaged 96 μm, representing a 95% increase compared to the control condition. To determine if the en bloc chondroitinase treatment was thorough, cryoculture assays were performed on nerve tissues treated with chondroitinase after sectioning (post-treatment).

CSPG = test: CSPG-neoepitope immunolabeling of injured sciatic nerve after in vivo chondroitinase injection; set-up: species or system rat; settings: single injection 1 U in 2 μl, 2 mm distal to injury; 4 days (transection) or 2 days (crush)
Experimental: as §1, with “After recovery from the anesthetic, animals were returned to standard housing. Two days (for crush injury) and four days (for transection injury) after surgery, nerves were removed under anesthesia and fixed as described below. One of the eight animals receiving nerve transection and repair was excluded because loss of continuity in one nerve occurred during convalescence.” left out
Axonal regeneration was assessed by GAP-43 immunofluorescence and digital image analysis. […]

Substance: chondroitinase ABC
- propensity of axons to regrow within basal laminae of the distal nerve (rat sciatic nerve; GAP-43/laminin double-immunolabeling): unaltered
- animals in which the number of axons entering the distal nerve was greater than in the control nerve (rat sciatic nerve; four days after injury): 7/7
- score of axons immediately distal to the coaptation vs control nerves (rat sciatic nerve; four days after transection and repair, 1 U in 2 μl injected, n=7): two-fold greater
- animals with increases greater than 3.5-fold (rat sciatic nerve; score of axons immediately distal to the coaptation, four days): 3/7
- increase in neurite growth compared to the control condition ([1]; acellular nerve pretreated en bloc vs en bloc vehicle): 95%
- average neurite length ([1]; acellular nerve pretreated en bloc, DRG neurons grown 24 h): 96 μm
- increase in neurite-promoting activity by post-treatment of sections ([1]; acellular nerve treated en bloc with vehicle only, sections post-treated with chondroitinase): 86%
- effect of post-treatment on sections from en bloc chondroitinase-treated nerve grafts ([1]; post-treatment after sectioning): only a slight additive effect
- CSPG degradation in extracellular matrix around the injection site (CSPG): substantially, if not completely, degraded CSPG
